Columns and labels:
[1] = test system: Caco-2 human colon carcinoma cell line; test: Caco-2 permeability; assay type: in vitro ADME; conditions: P app
Description: P app (apparent permeability) was determined in the Caco-2 human colon carcinoma cell line essentially as described in [11].

KDM4C = target: T1, KDM4C (Homo sapiens, UniProt Q9H3R0); test: High-content immunofluorescence (IF) assay, overexpressed full-length FLAG-tagged KDM in HeLa cells; assay type: cell-based; conditions: HeLa cells overexpressing WT KDM4C, H3K9me3 mark, 24 h; read-out: KDM4C, in cells, EC50 by IF assay (head: IC50)
T1 sequence (Q9H3R0 1-1056): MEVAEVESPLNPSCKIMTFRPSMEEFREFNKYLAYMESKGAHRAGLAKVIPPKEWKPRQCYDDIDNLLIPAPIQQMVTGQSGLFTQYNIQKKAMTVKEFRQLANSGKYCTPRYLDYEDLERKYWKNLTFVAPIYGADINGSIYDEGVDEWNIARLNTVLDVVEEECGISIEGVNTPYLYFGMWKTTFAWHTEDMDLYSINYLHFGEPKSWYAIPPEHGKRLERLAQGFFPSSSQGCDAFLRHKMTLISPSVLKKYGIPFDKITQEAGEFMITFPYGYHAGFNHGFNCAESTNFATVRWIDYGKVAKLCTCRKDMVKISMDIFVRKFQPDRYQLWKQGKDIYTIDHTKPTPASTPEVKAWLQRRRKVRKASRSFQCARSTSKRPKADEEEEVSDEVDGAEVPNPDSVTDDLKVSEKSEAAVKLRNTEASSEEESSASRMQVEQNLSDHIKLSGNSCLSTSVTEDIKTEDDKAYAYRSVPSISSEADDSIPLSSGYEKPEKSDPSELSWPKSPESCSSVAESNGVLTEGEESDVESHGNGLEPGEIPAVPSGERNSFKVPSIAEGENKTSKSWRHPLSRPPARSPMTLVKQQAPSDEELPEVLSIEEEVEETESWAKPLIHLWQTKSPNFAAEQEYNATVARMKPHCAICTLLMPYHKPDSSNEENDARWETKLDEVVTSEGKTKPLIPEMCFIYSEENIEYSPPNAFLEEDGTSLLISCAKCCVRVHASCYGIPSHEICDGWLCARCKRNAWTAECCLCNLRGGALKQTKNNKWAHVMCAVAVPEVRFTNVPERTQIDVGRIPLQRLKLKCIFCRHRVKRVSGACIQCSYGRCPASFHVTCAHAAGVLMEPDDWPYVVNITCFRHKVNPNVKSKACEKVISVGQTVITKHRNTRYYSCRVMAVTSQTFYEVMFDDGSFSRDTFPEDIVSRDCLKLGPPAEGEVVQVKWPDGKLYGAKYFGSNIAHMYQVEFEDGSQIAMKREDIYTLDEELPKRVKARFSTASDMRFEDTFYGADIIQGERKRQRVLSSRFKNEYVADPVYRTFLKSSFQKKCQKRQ
Description: (§1) HeLa cells (ATCC) were cultured at 37 °C and 5% CO2 in Minimal Essential Media—Eagle (Sigma-Aldrich, UK) supplemented with 10% heat-inactivated foetal calf serum (FCS) (Gibco, UK), and 1% L-glutaMAX (Gibco, UK) in T75 flasks (Sarstedt, UK) and passaged regularly with TrypLE (Life Technologies, UK) before cells reached confluence. On day 0, 7000 cells per well were plated on a 96-well clear bottom CellCarrier plate (PerkinElmer, UK). The next day the cells were transfected with Lipofectamine 3000 (ThermoFisher Scientific, UK) following the manufacturer’s instructions. Briefly, 0.1 µg of plasmid DNA (encoding for the respective demethylase) and 0.15 µL of Lipofectamine 3000 were diluted in separate tubes containing 5 µL OptiMEM. 0.15 µL of P3000 was added to the tube with the DNA. The two solutions were then mixed gently and allowed to incubate for 5 min at room temperature. Next, the DNA-lipid complex was added to the cells for 4 h at 37 °C and 5% CO2.
(§2) Compound dilutions were made in a 96-well PCR plate (Starlab, UK). The culture medium was supplemented with 0.4% DMSO so that the solvent concentration was maintained throughout. Compounds were serially diluted at a 1:2 or 1:3 dilution ratio. Next, the cell culture plate was removed from the incubator and the medium was gently aspirated and replaced with the fresh medium containing diluted compounds.
(§3) Then cells were rinsed once with PBS and blocked for 30 min at room temperature using 3% v/v foetal calf serum diluted in PBS.

KDM4B = target: T2, KDM4B (Homo sapiens, UniProt O94953); test: as above; assay type: cell-based; conditions: HeLa cells overexpressing WT KDM4B, H3K9me3 mark, 24 h; read-out: KDM4B, in cells, EC50 by IF assay (head: IC50)
T2 sequence (O94953 1-1096): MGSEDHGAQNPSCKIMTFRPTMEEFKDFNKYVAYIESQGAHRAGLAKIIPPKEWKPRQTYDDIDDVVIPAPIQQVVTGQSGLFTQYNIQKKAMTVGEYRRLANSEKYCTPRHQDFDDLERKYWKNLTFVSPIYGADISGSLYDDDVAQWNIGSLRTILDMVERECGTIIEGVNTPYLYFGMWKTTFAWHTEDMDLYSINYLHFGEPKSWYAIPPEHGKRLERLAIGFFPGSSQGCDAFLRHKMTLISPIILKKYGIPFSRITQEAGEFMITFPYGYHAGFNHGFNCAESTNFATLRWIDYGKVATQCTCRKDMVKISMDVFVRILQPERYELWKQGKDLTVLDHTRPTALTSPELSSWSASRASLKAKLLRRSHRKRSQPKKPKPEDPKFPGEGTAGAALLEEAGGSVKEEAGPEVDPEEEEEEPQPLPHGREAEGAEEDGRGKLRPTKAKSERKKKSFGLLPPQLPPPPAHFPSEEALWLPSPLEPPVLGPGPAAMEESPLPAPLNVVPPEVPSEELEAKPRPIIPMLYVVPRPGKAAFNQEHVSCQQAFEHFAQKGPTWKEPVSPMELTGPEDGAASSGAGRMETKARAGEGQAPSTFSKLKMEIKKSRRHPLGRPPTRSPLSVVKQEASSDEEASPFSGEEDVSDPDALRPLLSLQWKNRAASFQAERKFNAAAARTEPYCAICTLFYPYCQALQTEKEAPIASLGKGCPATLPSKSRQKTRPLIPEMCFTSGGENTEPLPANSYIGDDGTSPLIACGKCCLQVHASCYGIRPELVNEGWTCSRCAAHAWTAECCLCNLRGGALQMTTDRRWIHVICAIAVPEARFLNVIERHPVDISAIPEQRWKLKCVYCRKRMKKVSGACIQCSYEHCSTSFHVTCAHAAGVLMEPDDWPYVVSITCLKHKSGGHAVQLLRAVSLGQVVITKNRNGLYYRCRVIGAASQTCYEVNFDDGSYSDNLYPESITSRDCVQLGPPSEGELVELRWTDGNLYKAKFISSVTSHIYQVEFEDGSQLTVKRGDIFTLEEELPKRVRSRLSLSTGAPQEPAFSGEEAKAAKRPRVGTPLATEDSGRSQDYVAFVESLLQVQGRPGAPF
Description: as §1, §2, §3

| Compound | Caco-2 (A to B flux) [1] | EC50 (KDM4C) | EC50 (KDM4B) |
| --- | --- | --- | --- |
| CCOC(=O)c1ccnc(CNCC(=O)N(CC)CCN(C)C)c1 [KDOAM-21] | 5.32e-06 cm/s | 17.9 µM | 10 µM |
| CPI-455 | 5.21e-06 cm/s | – | – |
| CCN(CCN(C)C)C(=O)CNCc1cncc(C(N)=O)c1 [KDOAM-32] | – | > 100 µM | > 100 µM |

Reference: article PMC5333395, “Assessing histone demethylase inhibitors in cells: lessons learned” (Epigenetics & Chromatin, 2017)
